Test results taken from ChEMBL document CHEMBL1130637, “Pyrrolnitrin and related pyrroles endowed with antibacterial activities against Mycobacterium tuberculosis” (1998).
≈ marks a conversion by molar mass, not a printed value.

Assays:
Mycobacterium avium [1] = assay: Antimycobacterial activity against Mycobacterium avium CIP 103317; type: functional
Mycobacterium marinum [2] = assay: Compound was tested for anti-mycobacterial activity against Mycobacterium marinum CIP 6423.; type: functional
Mycobacterium gordonae [3] = assay: Antimycobacterial activity against Mycobacterium gordonae CIP 6427; type: functional
[4] = test system: Mycobacterium tuberculosis; assay: Antimycobacterial activity against Mycobacterium tuberculosis CIP 103471; type: functional
[5] = test system: Mycolicibacterium smegmatis; assay: Antibacterial activity against Mycobacterium smegmatis CIP 103599.; type: functional
Vero [6] = assay: In vitro cytotoxicity against VERO cells.; type: functional, Chlorocebus sabaeus
Mycobacterium marinum [7] = assay: Antimycobacterial activity against Mycobacterium marinum CIP 6423; type: functional
Vero [8] = assay: Compound was tested for cytotoxicity against VERO cells; type: functional, Chlorocebus sabaeus
[9] = test system: Mycobacterium tuberculosis; assay: Compound was tested for anti-mycobacterial activity against Mycobacterium tuberculosis CIP 103471; type: functional
Mycobacterium avium [10] = assay: Compound was tested for anti-mycobacterial activity against Mycobacterium avium CIP 103317; type: functional
Mycobacterium gordonae [11] = assay: Compound was tested for anti-mycobacterial activity against Mycobacterium gordonae CIP 6427; type: functional

| Compound | MIC (Mycobacterium avium [1]) | MIC (Mycobacterium marinum [2]) | MIC (Mycobacterium gordonae [3]) | MIC [4] | MIC [5] | MTD50 (Vero [6]) | MIC (Mycobacterium marinum [7]) | MTD50 (Vero [8]) | MIC [9] | MIC (Mycobacterium avium [10]) | MIC (Mycobacterium gordonae [11]) |
| --- | --- | --- | --- | --- | --- | --- | --- | --- | --- | --- | --- |
| O=[N+]([O-])c1c[nH]cc1-c1cccc(Cl)c1Cl | > 16 µg/mL | > 16 µg/mL | > 16 µg/mL | 16 µg/mL (≈ 62.2 µM) | > 16 µg/mL | 1 µg/mL | – | – | – | – | – |
| OCc1cn(Cc2ccccc2Cl)cc1-c1ccc(Cl)cc1 | > 16 µg/mL | – | > 16 µg/mL | 8 µg/mL (≈ 24.1 µM) | > 16 µg/mL | 15 µg/mL | > 16 µg/mL | – | – | – | – |
| CCOC(=O)c1cn(Cc2ccccc2)cc1-c1ccc(OC)cc1 | > 16 µg/mL | – | > 16 µg/mL | 8 µg/mL (≈ 23.9 µM) | > 16 µg/mL | 8 µg/mL | > 16 µg/mL | – | – | – | – |
| O=[N+]([O-])c1c[nH]cc1-c1ccccc1Cl | > 16 µg/mL | – | > 16 µg/mL | > 16 µg/mL | > 16 µg/mL | – | > 16 µg/mL | – | – | – | – |
| O=[N+]([O-])c1c[nH]cc1-c1ccc(Cl)cc1 | > 16 µg/mL | – | > 16 µg/mL | > 16 µg/mL | > 16 µg/mL | – | > 16 µg/mL | – | – | – | – |
| NC(=O)c1c[nH]cc1-c1ccc(Cl)cc1 | > 16 µg/mL | – | > 16 µg/mL | > 16 µg/mL | > 16 µg/mL | 16 µg/mL | > 16 µg/mL | – | – | – | – |
| COc1ccc(-c2cn(C)cc2[N+](=O)[O-])c(Cl)c1 | > 16 µg/mL | – | > 16 µg/mL | > 16 µg/mL | > 16 µg/mL | 2 µg/mL | > 16 µg/mL | – | – | – | – |
| CCOC(=O)c1cn(C)cc1-c1ccc(OC)cc1 | > 16 µg/mL | – | > 16 µg/mL | – | > 16 µg/mL | – | > 16 µg/mL | 4 µg/mL | > 16 µg/mL | – | – |
| O=[N+]([O-])c1c[nH]cc1-c1ccc(Cl)cc1Cl | 16 µg/mL (≈ 62.2 µM) | – | > 16 µg/mL | 1 µg/mL (≈ 3.89 µM) | > 16 µg/mL | 1 µg/mL | > 16 µg/mL | – | – | – | – |
| O=[N+]([O-])c1c[nH]cc1-c1cccc(Cl)c1 | > 16 µg/mL | – | > 16 µg/mL | > 16 µg/mL | > 16 µg/mL | – | > 16 µg/mL | – | – | – | – |
| NNC(=O)c1c[nH]cc1-c1ccc(Cl)cc1 | > 16 µg/mL | – | > 16 µg/mL | > 16 µg/mL | > 16 µg/mL | 16 µg/mL | > 16 µg/mL | – | – | – | – |
| CCOC(=O)c1c[nH]cc1-c1ccc(Cl)cc1Cl | > 16 µg/mL | – | > 16 µg/mL | > 16 µg/mL | > 16 µg/mL | 2 µg/mL | > 16 µg/mL | – | – | – | – |
| O=C(O)c1cn(Cc2ccc(Cl)cc2)cc1-c1ccc(Cl)cc1 | 16 µg/mL (≈ 46.2 µM) | – | > 16 µg/mL | 16 µg/mL (≈ 46.2 µM) | > 1 µg/mL | 8 µg/mL | > 16 µg/mL | – | – | – | – |
| Cn1cc(C(=O)O)c(-c2ccc(Cl)cc2)c1 | 16 µg/mL (≈ 67.9 µM) | – | > 16 µg/mL | > 16 µg/mL | > 16 µg/mL | – | > 16 µg/mL | – | – | – | – |
| COc1ccc(-c2c[nH]cc2[N+](=O)[O-])c(Cl)c1 | 16 µg/mL (≈ 63.3 µM) | – | > 16 µg/mL | > 16 µg/mL | > 16 µg/mL | 2 µg/mL | > 16 µg/mL | – | – | – | – |
| CCOC(=O)c1cn(Cc2ccc(F)cc2)cc1-c1ccccc1 | 16 µg/mL (≈ 49.5 µM) | – | > 16 µg/mL | > 16 µg/mL | > 16 µg/mL | 4 µg/mL | > 16 µg/mL | – | – | – | – |
| CCOC(=O)c1cn(C)cc1-c1ccc(Cl)cc1 | > 16 µg/mL | – | > 16 µg/mL | > 16 µg/mL | > 16 µg/mL | – | > 16 µg/mL | – | – | – | – |
| O=[N+]([O-])c1c[nH]cc1-c1cc(Cl)cc(Cl)c1 | 16 µg/mL (≈ 62.2 µM) | – | > 16 µg/mL | 8 µg/mL (≈ 31.1 µM) | > 16 µg/mL | 1 µg/mL | > 16 µg/mL | – | – | – | – |
| CCOC(=O)c1c[nH]cc1-c1ccc(Cl)cc1 | 4 µg/mL (≈ 16 µM) | – | > 16 µg/mL | 16 µg/mL (≈ 64.1 µM) | > 16 µg/mL | 4 µg/mL | > 16 µg/mL | – | – | – | – |
| Cn1cc(-c2ccc(Cl)cc2Cl)c([N+](=O)[O-])c1 | > 16 µg/mL | – | > 16 µg/mL | > 16 µg/mL | > 16 µg/mL | – | > 16 µg/mL | – | – | – | – |
| Cn1cc(-c2ccc(Cl)cc2)c([N+](=O)[O-])c1 | > 16 µg/mL | – | > 16 µg/mL | > 16 µg/mL | > 16 µg/mL | – | > 16 µg/mL | – | – | – | – |
| Cn1cc(-c2ccccc2Cl)c([N+](=O)[O-])c1 | > 16 µg/mL | – | > 16 µg/mL | > 16 µg/mL | > 16 µg/mL | – | > 16 µg/mL | – | – | – | – |
| NC(=O)c1c[nH]cc1-c1ccc(Cl)cc1Cl | 16 µg/mL (≈ 62.7 µM) | – | > 16 µg/mL | > 16 µg/mL | > 16 µg/mL | 0.125 µg/mL | > 16 µg/mL | – | – | – | – |
| CCOC(=O)c1cn(Cc2ccc(F)cc2)cc1-c1ccc(OC)cc1 | > 16 µg/mL | – | > 16 µg/mL | 16 µg/mL (≈ 45.3 µM) | > 16 µg/mL | 2 µg/mL | > 16 µg/mL | – | – | – | – |
| O=[N+]([O-])c1c[nH]cc1-c1c(Cl)cccc1Cl | > 16 µg/mL | – | > 16 µg/mL | > 16 µg/mL | > 16 µg/mL | – | > 16 µg/mL | – | – | – | – |
| O=[N+]([O-])c1c[nH]cc1-c1ccc(Cl)c(Cl)c1 | 16 µg/mL (≈ 62.2 µM) | – | > 16 µg/mL | 8 µg/mL (≈ 31.1 µM) | > 16 µg/mL | 2 µg/mL | > 16 µg/mL | – | – | – | – |
| NNC(=O)c1ccncc1 [ISONIAZID] | 32 µg/mL (≈ 233 µM) | – | 32 µg/mL (≈ 233 µM) | 0.25 µg/mL (≈ 1.82 µM) | 64 µg/mL (≈ 467 µM) | 32 µg/mL | 16 µg/mL (≈ 117 µM) | – | – | – | – |
| O=[N+]([O-])c1c(Cl)cccc1-c1c[nH]cc1Cl [PYRROLNITRIN] | – | – | – | – | 16 µg/mL (≈ 62.2 µM) | 8 µg/mL | > 16 µg/mL | – | 4 µg/mL (≈ 15.6 µM) | 8 µg/mL (≈ 31.1 µM) | > 16 µg/mL |
| CN[C@@H]1[C@H](O[C@H]2[C@H](O[C@H]3[C@H](O)[C@@H](O)[C@H](N=C(N)N)[C@@H](O)[C@@H]3N=C(N)N)O[C@@H](C)[C@]2(O)C=O)O[C@@H](CO)[C@H](O)[C@H]1O [STREPTOMYCIN] | 8 µg/mL (≈ 13.8 µM) | – | 16 µg/mL (≈ 27.5 µM) | 0.5 µg/mL (≈ 0.86 µM) | 8 µg/mL (≈ 13.8 µM) | 128 µg/mL | 32 µg/mL (≈ 55 µM) | – | – | – | – |
